The values below are quoted from earlier work in publication PMC4360375 (Journal of Medicinal Chemistry, 2015).

The first data set concerns GABA uptake, rat synaptosome. As to conditions: literature data set; ref 10.1021/jm00064a005; cited from earlier work.
Turning to `O=C(O)[C@@H]1CCCN(CCC=C(c2ccccc2)c2ccccc2)C1` [(R)-SK&F-89976-A, OC(=O)[C@@H]1CCCN(C1)CC\C=C(\c1ccccc1)/c1ccccc1], the pIC50 is listed as 6.959.

On to `Cc1ccsc1C(=CCCN1CCC[C@H](C(=O)O)C1)c1sccc1C` [(S)-Tiagabine, s1ccc(C)c1\C(=C\CCN1C[C@H](CCC1)C(O)=O)\c1sccc1C], for which the pIC50 was 6.658.

For the molecule `Cc1ccsc1C(=CCCN1CCC=C(C(=O)O)C1)c1sccc1C` [An_1993_30, s1ccc(C)c1\C(=C\CCN1CC(=CCC1)C(O)=O)\c1sccc1C], the pIC50 was 6.854.

Regarding `Cc1ccccc1/C(=C\CCN1CCC[C@@H](C(=O)O)C1)c1sccc1C` [An_1993_31, s1ccc(C)c1/C(=C/CCN1C[C@@H](CCC1)C(O)=O)/c1ccccc1C], the pIC50 is given as 7.097.

Regarding `Cc1ccccc1/C(=C\CCN1CCC[C@H](C(=O)O)C1)c1sccc1C` [An_1993_32, s1ccc(C)c1/C(=C/CCN1C[C@H](CCC1)C(O)=O)/c1ccccc1C], the pIC50 is 6.42.

Turning to `Cc1ccccc1/C(=C\CCN1CCC=C(C(=O)O)C1)c1sccc1C` [An_1993_33, s1ccc(C)c1/C(=C/CCN1CC(=CCC1)C(O)=O)/c1ccccc1C], the pIC50 is reported as 6.886.

`Cc1ccccc1C(=CCCN1CCC[C@@H](C(=O)O)C1)c1ccccc1C` [An_1993_34, OC(=O)[C@@H]1CCCN(C1)CC\C=C(\c1ccccc1C)/c1ccccc1C]: the pIC50 is reported as 7.097.

As for `O=C(O)C1=CCCN(CC/C=C(\c2ccccc2)c2cccs2)C1` [An_1993_36, s1cccc1/C(=C/CCN1CC(=CCC1)C(O)=O)/c1ccccc1], the pIC50 was 6.577.

`Cc1ccsc1/C(=C/CCN1CCC=C(C(=O)O)C1)c1ccc(Cl)cc1Cl` [An_1993_37, Clc1cc(Cl)ccc1\C(=C/CCN1CC(=CCC1)C(O)=O)\c1sccc1C]: the negative-log IC50 (pIC50) is recorded as 6.495.

Consider `Cc1ccsc1/C(=C/CCN1CCC=C(C(=O)O)C1)c1cc(Cl)cc(Cl)c1` [An_1993_38, Clc1cc(cc(Cl)c1)/C(=C\CCN1CC(=CCC1)C(O)=O)/c1sccc1C], for which the pIC50 was 5.73.

For the molecule `Cc1ccsc1/C(=C/CCN1CCC[C@@H](C(=O)O)C1)c1cccs1` [An_1993_40, s1ccc(C)c1\C(=C\CCN1C[C@@H](CCC1)C(O)=O)\c1sccc1], the pIC50 was 7.222.

Regarding `Cc1ccsc1/C(=C/CCN1CCC[C@H](C(=O)O)C1)c1cccs1` [An_1993_41, s1ccc(C)c1\C(=C\CCN1C[C@H](CCC1)C(O)=O)\c1sccc1], the pIC50 is on record as 6.161.

In the case of `Cc1ccsc1/C(=C/CCN1CCC=C(C(=O)O)C1)c1cccs1` [An_1993_42, s1ccc(C)c1\C(=C\CCN1CC(=CCC1)C(O)=O)\c1sccc1], the negative logarithm of the IC50 (pIC50) was 6.959.

On to `Cc1cc(Cl)ccc1/C(=C\CCN1CCC[C@@H](C(=O)O)C1)c1sccc1C` [An_1993_44, Clc1cc(C)c(cc1)\C(=C/CCN1C[C@@H](CCC1)C(O)=O)\c1sccc1C], for which the pIC50 was 6.959.

Regarding `Cc1cc(Cl)ccc1/C(=C\CCN1CCC=C(C(=O)O)C1)c1sccc1C` [An_1993_45, Clc1cc(C)c(cc1)\C(=C/CCN1CC(=CCC1)C(O)=O)\c1sccc1C], the pIC50 is 6.523.

Regarding `Cc1ccsc1/C(=C/CCN1CCC[C@@H](C(=O)O)C1)c1c(C)cccc1C` [An_1993_46, s1ccc(C)c1/C(=C/CCN1C[C@@H](CCC1)C(O)=O)/c1c(cccc1C)C], the pIC50 is on record as 6.602.

For `Cc1ccc(/C(=C\CCN2CCC[C@@H](C(=O)O)C2)c2sccc2C)c(C)c1` [An_1993_47, s1ccc(C)c1/C(=C/CCN1C[C@@H](CCC1)C(O)=O)/c1ccc(cc1C)C], the pIC50 was 6.585.

`Cc1ccsc1/C(=C/CCN1CCC=C(C(=O)O)C1)c1ccc(Cl)cc1` [An_1993_48, Clc1ccc(cc1)/C(=C\CCN1CC(=CCC1)C(O)=O)/c1sccc1C]: the pIC50 is reported as 6.071.

Regarding `Cn1cccc1/C(=C/CCN1CCC=C(C(=O)O)C1)c1ccccc1` [An_1993_49, OC(=O)C=1CN(CCC=1)CC\C=C(/c1ccccc1)\c1n(ccc1)C], the pIC50 is recorded as 6.886.

Still in this data set, the particulars now being: literature data set; ref 10.1021/jm981027k; cited from earlier work.
For the molecule `Cc1ccsc1C(=NOCCN1CCC[C@@H](C(=O)O)C1)c1sccc1C` [An_1999/3_12, s1ccc(C)c1\C(=N\OCCN1C[C@@H](CCC1)C(O)=O)\c1sccc1C], the negative-log IC50 (pIC50) is given as 7.398.

As to `Cc1csc(/C(=N/OCCN2CCC[C@@H](C(=O)O)C2)c2ccccc2C)c1` [An_1999/3_20, s1cc(cc1/C(=N/OCCN1C[C@@H](CCC1)C(O)=O)/c1ccccc1C)C], the pIC50 is recorded as 6.108.

In the case of `Cc1csc(/C(=N/OCCN2CCC[C@H](C(=O)O)C2)c2ccccc2C)c1` [An_1999/3_21, s1cc(cc1/C(=N/OCCN1C[C@H](CCC1)C(O)=O)/c1ccccc1C)C], the pIC50 is on record as 5.062.

Turning to `Cc1csc(/C(=N\OCCN2CCC[C@@H](C(=O)O)C2)c2ccccc2C)c1` [An_1999/3_22, s1cc(cc1/C(=N\OCCN1C[C@@H](CCC1)C(O)=O)/c1ccccc1C)C], the pIC50 is 6.585.

Consider `Cc1csc(/C(=N\OCCN2CCC[C@H](C(=O)O)C2)c2ccccc2C)c1` [An_1999/3_23, s1cc(cc1/C(=N\OCCN1C[C@H](CCC1)C(O)=O)/c1ccccc1C)C], for which the pIC50 was 5.917.

On to `Cc1ccccc1/C(=N/OCCN1CCC[C@@H](C(=O)O)C1)c1sccc1C` [An_1999/3_39, s1ccc(C)c1/C(=N\OCCN1C[C@@H](CCC1)C(O)=O)/c1ccccc1C], for which the pIC50 is reported as 7.155.

`Cc1ccccc1/C(=N\OCCN1CCC[C@@H](C(=O)O)C1)c1sccc1C` [An_1999/3_40, s1ccc(C)c1/C(=N/OCCN1C[C@@H](CCC1)C(O)=O)/c1ccccc1C]: the pIC50 was 7.046.

Regarding `Cc1ccccc1C(=COCCN1CCC[C@@H](C(=O)O)C1)c1ccccc1C` [An_1999/3_45, O(\C=C(\c1ccccc1C)/c1ccccc1C)CCN1C[C@@H](CCC1)C(O)=O], the pIC50 is recorded as 7.699.

With `O=C(O)[C@@H]1CCCN(CCOC=C(c2ccccc2)c2ccccc2)C1` [An_1999/3_47, O(\C=C(\c1ccccc1)/c1ccccc1)CCN1C[C@@H](CCC1)C(O)=O], the pIC50 is on record as 7.066.

With `O=C(O)[C@H]1CCCN(CCON=C(c2ccccc2)c2ccccc2)C1` [An_1999/3_61, O(\N=C(\c1ccccc1)/c1ccccc1)CCN1C[C@H](CCC1)C(O)=O], the pIC50 is listed as 6.377.

Turning to `Cc1ccccc1C(=NOCCN1CCC[C@@H](C(=O)O)C1)c1ccccc1C` [An_1999/3_62, O(\N=C(\c1ccccc1C)/c1ccccc1C)CCN1C[C@@H](CCC1)C(O)=O], the pIC50 is 7.155.

Regarding `Cc1ccccc1C(=NOCCN1CCC[C@H](C(=O)O)C1)c1ccccc1C` [An_1999/3_63, O(\N=C(\c1ccccc1C)/c1ccccc1C)CCN1C[C@H](CCC1)C(O)=O], the pIC50 is listed as 6.886.

With `Cc1ccccc1C(=NOCCN1CCC=C(C(=O)O)C1)c1ccccc1C` [An_1999/3_64, O(\N=C(\c1ccccc1C)/c1ccccc1C)CCN1CC(=CCC1)C(O)=O], the pIC50 was 7.222.

As for `O=C(O)[C@@H]1CCCN(CCO/N=C(\c2ccc(F)cc2F)c2cc(F)ccc2F)C1` [An_1999/3_67, Fc1cc(F)ccc1/C(=N\OCCN1C[C@@H](CCC1)C(O)=O)/c1cc(F)ccc1F], the pIC50 is listed as 7.301.

`O=C(O)[C@@H]1CCCN(CCON=C(c2ccc(F)cc2F)c2ccc(F)cc2F)C1` [An_1999/3_68, Fc1cc(F)ccc1\C(=N\OCCN1C[C@@H](CCC1)C(O)=O)\c1ccc(F)cc1F]: the pIC50 is listed as 7.

`Cc1ccccc1/C(=C/OCCN1CCC[C@@H](C(=O)O)C1)c1sccc1C` [An_1999/3_69, s1ccc(C)c1/C(=C\OCCN1C[C@@H](CCC1)C(O)=O)/c1ccccc1C]: the pIC50 is 7.77.

In the case of `Cc1ccccc1C(=COCCN1CCC=C(C(=O)O)C1)c1ccccc1C` [An_1999/3_70, O(\C=C(\c1ccccc1C)/c1ccccc1C)CCN1CC(=CCC1)C(O)=O], the pIC50 was 7.585.

In the case of `Cc1ccccc1/C(=C\OCCN1CCC[C@@H](C(=O)O)C1)c1cccc(F)c1` [An_1999/3_71, Fc1cc(ccc1)/C(=C/OCCN1C[C@@H](CCC1)C(O)=O)/c1ccccc1C], the pIC50 is given as 7.523.

Take `Cc1ccccc1/C(=C\OCCN1CCC=C(C(=O)O)C1)c1ccccc1F` [An_1999/3_72, Fc1ccccc1/C(=C/OCCN1CC(=CCC1)C(O)=O)/c1ccccc1C]: the pIC50 is listed as 7.699.

As to `O=C(O)[C@@H]1CCCN(CCO/C=C(\c2ccccc2)c2ccccc2Cl)C1` [An_1999/3_73, Clc1ccccc1\C(=C\OCCN1C[C@@H](CCC1)C(O)=O)\c1ccccc1], the pIC50 is recorded as 7.921.

As for `O=C(O)[C@@H]1CCCN(CCON=C(c2ccccc2Cl)c2ccccc2Cl)C1` [An_1999/3_74, Clc1ccccc1\C(=N\OCCN1C[C@@H](CCC1)C(O)=O)\c1ccccc1Cl], the pIC50 was 7.398.

For the molecule `O=C(O)[C@@H]1CCCN(CCO/N=C(/c2cccc(F)c2)c2ccccc2F)C1` [An_1999/3_75, Fc1ccccc1\C(=N/OCCN1C[C@@H](CCC1)C(O)=O)\c1cc(F)ccc1], the pIC50 is listed as 6.658.

Consider `Cc1ccccc1/C(=C/OCCN1CCC[C@@H](C(=O)O)C1)c1cccc(F)c1` [An_1999/3_76, Fc1cc(ccc1)/C(=C\OCCN1C[C@@H](CCC1)C(O)=O)/c1ccccc1C], for which the pIC50 is 7.301.

Regarding `Cc1cc(F)ccc1C(=COCCN1CCC[C@@H](C(=O)O)C1)c1ccc(F)cc1C` [An_1999/3_77, Fc1cc(C)c(cc1)\C(=C\OCCN1C[C@@H](CCC1)C(O)=O)\c1ccc(F)cc1C], the pIC50 was 7.222.

Turning to `Cc1ccccc1/C(=C/OCCN1CCC=C(C(=O)O)C1)c1cccc(Cl)c1` [An_1999/3_78, Clc1cc(ccc1)/C(=C\OCCN1CC(=CCC1)C(O)=O)/c1ccccc1C], the pIC50 was 7.222.

For `O=C(O)[C@@H]1CCCN(CCOC=C(c2ccc(F)cc2F)c2ccc(F)cc2F)C1` [An_1999/3_79, Fc1cc(F)ccc1\C(=C\OCCN1C[C@@H](CCC1)C(O)=O)\c1ccc(F)cc1F], the pIC50 is listed as 6.886.

Turning to `Cc1ccsc1C(=NOCCN1CCC[C@H](C(=O)O)C1)c1sccc1C` [An_1999/3_80, s1ccc(C)c1\C(=N\OCCN1C[C@H](CCC1)C(O)=O)\c1sccc1C], the pIC50 is reported as 7.097.

Consider `Cc1ccsc1/C(=N\OCCN1CCC[C@@H](C(=O)O)C1)c1cccs1` [An_1999/3_81, s1ccc(C)c1\C(=N/OCCN1C[C@@H](CCC1)C(O)=O)\c1sccc1], for which the pIC50 is 7.155.

In the case of `Cc1ccccc1/C(=N/OCCN1CCC[C@H](C(=O)O)C1)c1sccc1C` [An_1999/3_82, s1ccc(C)c1/C(=N\OCCN1C[C@H](CCC1)C(O)=O)/c1ccccc1C], the pIC50 is 7.097.
